Where only a bound is given, the exact number is not on record here.

The test system of data set [1] is P. falciparum asexual parasites, chloroquine-resistant W2 strain. Kind of data set: Drug susceptibility assay (pLDH), asexual parasites, W2 strain. Format: cell-based, Plasmodium falciparum. Particulars: Plasmodium falciparum, W2, chloroquine-resistant W2 strain; read-out: IC50, W2 strain. As for the experimental part:
Chloroquine (CQ)-sensitive (D10, wild-type 3D7, or transgenic 3D7elo1-pfs16-CBG99) and CQ-resistant (W2) strains of P. falciparum were cultured as described previously ([58]), with slight modifications, as detailed in the supplemental material.
Asexual parasite growth was determined spectrophotometrically (optical density at 650 nm [OD650]) by measuring the activity of parasite lactate dehydrogenase (pLDH), according to a modified version of the method of Makler et al. ([59]). Gametocyte viability was measured by a luminescence method described previously ([60]). Details for the two methods are reported in the supplemental material. From either the OD or ALU (arbitrary luminescence units), the percentages of viability were calculated according to the formula 100 × (treated sample signal − blank signal)/(untreated control signal − blank signal). The blank for the pLDH assay was uninfected RBCs at the same hematocrit as that of parasitized RBCs, and the blank for the luminescence assay was parasites treated with a high dose of methylene blue. […]
The CQ-sensitive (D10) and the CQ-resistant (W2) strains were maintained at 5% hematocrit […]
supplemented with 1% AlbuMaxII (lipid-rich bovine serum albumin) (Invitrogen), 0.01% hypoxantine (Sigma), 20mM Hepes (EuroClone), 2 mM glutamine (EuroClone). […]
In vitro P. falciparum drug susceptibility assay […]
plate were transferred to a plate containing 100µl of Malstat reagent (0.11% [vol/vol] Triton- […]
dinucleotide [APAD] [Sigma-Aldrich], adjusted to pH 9 with 1 M HCl) and 25 µl of PES/NBT […]
pLDHassay. The plate was read at a wavelength of 650 nm using a microplate reader, Synergy4 […]
Uninfected RBC at the same HCT than parasites were used as blank. […]

The subject of data set [2] is P. falciparum invasion of red blood cells. As to the kind of experiment: Parasite invasion assay. Format: cell-based, Plasmodium falciparum. The following applies: 2.5 μM. As for the experimental part: Invasion assays were performed as previously described ([17]). Invasion rates were calculated by subtracting the number of schizonts at the end of the assay (6 h postinvasion [hpi]) from the number of schizonts in the time zero (T0) sample, obtaining the number of merozoite-releasing schizonts. The number of new infections was normalized to the number of merozoite-releasing schizonts to obtain the parasitized erythrocyte multiplication rate (PEMR). This value was normalized to the control sample, obtaining the invasion rate value. The results are the means from three independent biological replicates, each performed in triplicate.

Data set [3] deals with P. falciparum W2 asexual parasites. As to the kind of experiment: Association experiments (isobologram), W2 parasites. Particulars: in combination with 1A116, W2 parasites. Type of data set: cell-based, Plasmodium falciparum. As for the experimental part:
The effect of 1A116 on the IC50 of EHop-016 was determined by potentiation tests as previously described ([62]). Isobolograms were created by plotting a pair of fractional IC50s for each combination of EHop-016 and 1A116. […] The corresponding 1A116 fractional IC50s were calculated by dividing each fixed concentration by the IC50 of 1A116 alone and plotted on the vertical axis.

In data set [4] the test system is Rac1. On the set-up: method as in PMID 22383527. The following applies: Rac1 activity in MDA-MB-435 melanoma cells; cited from earlier work.
Details of data set [5]: method as in PMID 25389450, PMID 25594952. The following applies: mice, orally, 25 mg/kg three times a week for 55 days; cited from earlier work.
The target in data set [6] is T1, Rac1 (Homo sapiens, UniProt P63000). Kind of data set: G-LISA Rac1 activation assay in uninfected erythrocytes. Type of data set: cell-based. On the set-up: endogenous in cells; host or cells: erythrocytes from whole blood of 7 donors. Particulars: 2.5 μM, 2 h. As for the experimental part: Whole blood collected from 7 donors was washed in RPMI 1640 four times to remove plasma, platelets, and leukocytes. The number of erythrocytes was determined by using a cell counting chamber. Erythrocytes were incubated for 2 h at 37°C with or without 2.5 μM EHop-016 and then washed. In each sample, the Rac1 activation state was measured with the G-LISA Rac1 activation assay luminescence-based biochemical kit (Cytoskeleton). Luminescence intensity was assessed with a BioTek Synergy HT plate reader. These experiments were performed in three biological replicates.

Data set [7] concerns the target T1, Rac1. As to the kind of experiment: Immunofluorescence assay with anti-Rac1/GTP on parasitophorous vacuole. The following applies: 1.4 μM, 20 h. Type of data set: cell-based. More on the design: endogenous in cells; host or cells: erythrocytes from whole blood of 7 donors. As for the experimental part: We thus decided to investigate the Rac1 activation state in infected erythrocytes treated with EHop-016 and in the untreated control. To do this, we applied a methodology that allows us to specifically measure Rac1 activation levels on the parasitophorous vacuole. Freshly invaded erythrocytes were thus exposed to 1.4 μM EHop-016 treatment for 20 h and then smeared and analyzed by an immunofluorescence assay (IFA) with an antibody that specifically recognizes Rac1 in its active form (anti-Rac1/GTP). The resulting fluorescence signal was measured both in the EHop-016-treated sample and in the untreated control.
Cytotoxicity was evaluated on Human Microvascular Endothelial Cells (HMEC-1) maintained in MCDB-131 medium supplemented with 10% foetal calf serum (Euroclone), 20mM HEPES and 2 mM L-glutamine. […]
Immuno-fluorescence assay
Synchronous mature schizonts were purified by 60% Percoll gradient and allowed to invade fresh human RBCs for two hours. […] Negative controls without primary antibodies have been performed, resulting in complete absence of fluorescence s ignals. Anti-Rac1/GTP fluorescence signal was measured by using the software ImageJ (the parasitophorous vacuole area was delimited based on the anti-Exp1 signal). At least 40 cells were analyzed in each sample.

As usually defined, the IC50 is the concentration that gives 50% inhibition. For the compound `CCn1c2ccccc2c2cc(Nc3ccnc(NCCCN4CCOCC4)n3)ccc21` [EHop-016], the values for the IC50 (in data set [1]; in the data set on Rac1 [4]) were 322 ± 28.5 nM and 1100 nM, respectively. In data set [2], the “RBC invasion efficiency (invasion rate vs untreated control)” value is “did not reduce the RBC invasion efficiency”. Moreover, the “effect of combination (isobologram analysis)” value in data set [3] is on record as “additive effect”. In addition, the “fractional inhibitory concentration (FIC)” value in data set [3] was under 2. Besides, the “changes in weight or behavior” value in data set [5] is “did not cause any significant changes in weight or behavior”. Moreover, the “levels of active Rac1 in noninfected erythrocytes” value on Rac1 [6] was “does not inhibit Rac1 in noninfected erythrocytes”. The “anti-Rac1/GTP fluorescence intensity of parasitophorous vacuoles vs untreated control” value on Rac1 [7] was “significantly lower”.

The values are drawn from article PMC8765435, “In Vitro Antimalarial Activity of Inhibitors of the Human GTPase Rac1” (Antimicrobial Agents and Chemotherapy, 2022).
